In patent publication US20190261630A1, “USE OF PYRAZIFLUMID FOR CONTROLLING SCLEROTINIA SPP IN SEED TREATMENT APPLICATIONS” (Bayer CropScience Aktiengesellschaft, priority 2016, published 2019):
Like-named read-outs stand apart in the source and are kept apart here.

Legend:
Type in all cases: in vivo
soybean plants [1] = experiment: Damage on plants after seed treatment, emergence inhibition (Example B, Test 8); settings: soybean seed treatment 50 g a.i./100 kg seed
Method: (§1) Soybean seeds, treated to the desired dosages with the active compound solved in N-methyl-2-pyrrolidon and diluted with water, were sown in 6×6 cm pots (one seed per pot) filled with 1:1 mixture of steamed loam soil and quartz sand.
(§2) The plants were grown at 24° C. and 90% relative humidity in a greenhouse. Ascospores of Sclerotinia sclerotiorum were collected from 3 month old asci. Whole aerial surface of 27 day-old seedlings were sprayed with water suspension of the ascospores. The plants were kept for 72 hours in the dark at 24° C. and a relative humidity of 99%.

Sclerotinia sclerotiorum [2] = experiment: Spray test (dwarf beans), preventive control efficacy (Example B, Test 7); settings: spray treatment 100 mg ai/Liter, dwarf bean, 10 days old plants, incubation 3 days
Method: (§3) Solvent: 24.5 parts by weight of acetone • 24.5 parts by weight of dimethylacetamide
(§4) Emulsifier: 1 part by weight of alkylaryl polyglycol ether
(§5) To produce a suitable preparation of active compound, 1 part by weight of active compound is mixed with the stated amounts of solvent and emulsifier, and the concentrate is diluted with water to the desired concentration.
(§6) To test for preventive activity, unifoliate leaves of 10 day-old plants are sprayed with the preparation of active compound. After the spray coating has dried on, 2 small pieces of agar covered with growth of Sclerotinia sclerotiorum are placed on each leaf. The inoculated plants are placed in a darkened chamber at approximately 20° C. and a relative atmospheric humidity of 100%.
3 days after the inoculation, the size of the lesions on the leaves is evaluated. 0% means an efficacy which corresponds to that of the untreated control, while an efficacy of 100% means that no disease is observed.

dwarf beans = experiment: Damage on plants in spray test (Example B, Test 7); settings: spray treatment 100 mg ai/Liter, dwarf bean
Method: as §3, §4, §5, §6

Sclerotinia sclerotiorum [3] = experiment: Seed treatment test (soybean) with current standards, control efficacy (Example B, Test 8); settings: soybean seed treatment 50 g a.i./100 kg seed, incubation 3 days, inoculation 27 days after sowing
Method: as §1, §2
(§7) Assessment consisted of evaluation of infected area of the unifoliate leaves. Zero % means infection which corresponds to that of the untreated check, while an efficacy of 100% means that no infection was observed.

Sclerotinia sclerotiorum [4] = experiment: Seed treatment test, control efficacy against ascospore infection in soybean, greenhouse (Example A, Tests 1-6); settings: for pest or weed control at 70 g/100 kg seed / pest or weed control at 140 g/100 kg seed / pest or weed control at 35 g/100 kg seed: read-out: Sclerotinia sclerotiorum Control efficacy %; for pest or weed control at 25 g/100 kg seed: soybean seed treatment 25 g a.i./100 kg seed; for pest or weed control at 50 g/100 kg seed: soybean seed treatment 50 g a.i./100 kg seed; for pest or weed control at 10 g/100 kg seed: soybean seed treatment 10 g a.i./100 kg seed
Method: (§8) The test is performed under greenhouse conditions.
as §1
as §2, with “19-25-day-old” for “27 day-old”, “48-96” for “72”
as §7
The control efficacy is based on % infected leaf area.
Moreover, the tests were performed with different batches of plants.

soybean plants [5] = experiment: Damage on plants after seed treatment, relative growth inhibition in non-inoculated plants (Example A, Tests 1-6)
Method: as §8, §1
as §2, with “19-25-day-old” for “27 day-old”, “48-96” for “72”

[6] = Sclerotinia sclerotiorum, 48 h, Test 3, soybean seed treatment 70 g a.i./100 kg seed, incubation 2 days, inoculation 20 days after sowing
[7] = Sclerotinia sclerotiorum, 48 h, Test 3, soybean seed treatment 140 g a.i./100 kg seed, incubation 2 days, inoculation 20 days after sowing
[8] = Sclerotinia sclerotiorum, 48 h, Test 3, incubation 2 days, inoculation 20 days after sowing
[9] = Sclerotinia sclerotiorum, 72 h, Test 6, incubation 3 days, inoculation 22 days after sowing
[10] = Example A, soybean seed treatment
[11] = Test 1, soybean seed treatment 25 g a.i./100 kg seed
[12] = Test 1, soybean seed treatment 50 g a.i./100 kg seed
[13] = Test 3, soybean seed treatment 70 g a.i./100 kg seed
[14] = Test 6, soybean seed treatment 70 g a.i./100 kg seed
[15] = Test 6, soybean seed treatment 140 g a.i./100 kg seed
[16] = Sclerotinia sclerotiorum, 72 h, Test 1, incubation 3 days, inoculation 19 days after sowing
[17] = Sclerotinia sclerotiorum, 72 h, Test 6, soybean seed treatment 70 g a.i./100 kg seed, incubation 3 days, inoculation 22 days after sowing
[18] = Sclerotinia sclerotiorum, 72 h, Test 6, soybean seed treatment 140 g a.i./100 kg seed, incubation 3 days, inoculation 22 days after sowing
[19] = Sclerotinia sclerotiorum, 48 h, Test 5, incubation 2 days, inoculation 21 days after sowing
[20] = Sclerotinia sclerotiorum, 96 h, Test 4, incubation 4 days, inoculation 25 days after sowing

SMILES: O=C(NCCc1ncc(C(F)(F)F)cc1Cl)c1ccccc1C(F)(F)F [fluopyram]
- Damage on plants (emergence inhibition in %) (soybean plants [1]): 25%
- Sclerotinia sclerotiorum Control efficacy % (Sclerotinia sclerotiorum [2]): 100%
- Damage on plants (in %) (dwarf beans): 0%
- Sclerotinia sclerotiorum Control efficacy % (Sclerotinia sclerotiorum [3]): 68%

SMILES: CC1(C)N=C(c2cnc3ccccc3c2)c2ccccc2C1(F)F [drawing 23]
- pest or weed control at 70 g/100 kg seed (Sclerotinia sclerotiorum [4]; [6]): 72%
- pest or weed control at 140 g/100 kg seed (Sclerotinia sclerotiorum [4]; [7]): 96%

SMILES: Cc1nc2c(F)c(F)ccc2cc1Oc1cccc(F)c1C(C)(C)O
- pest or weed control at 70 g/100 kg seed (Sclerotinia sclerotiorum [4]; Sclerotinia sclerotiorum, 96 h): 0%
- pest or weed control at 140 g/100 kg seed (Sclerotinia sclerotiorum [4]; Sclerotinia sclerotiorum, 96 h): 99%

SMILES: O=c1c2cc(F)ccc2nc(-n2cncn2)n1-c1ccc(Cl)cc1Cl [Fluquinconazole]
- Damage on plants (relative growth inhibition in non-inoculated plants compared to untreated plants: in %) (soybean plants [5]; Test 3, soybean seed treatment 25 g a.i./100 kg seed): 0%
- Damage on plants (relative growth inhibition in non-inoculated plants compared to untreated plants: in %) (soybean plants [5]; Test 3, soybean seed treatment 50 g a.i./100 kg seed): 0%
- Damage on plants (relative growth inhibition in non-inoculated plants compared to untreated plants: in %) (soybean plants [5]; Test 6, soybean seed treatment 25 g a.i./100 kg seed): 0%
- Damage on plants (relative growth inhibition in non-inoculated plants compared to untreated plants: in %) (soybean plants [5]; Test 6, soybean seed treatment 50 g a.i./100 kg seed): 0%
- pest or weed control at 25 g/100 kg seed (Sclerotinia sclerotiorum [4]; [8]): 83%
- pest or weed control at 50 g/100 kg seed (Sclerotinia sclerotiorum [4]; [8]): 86%
- pest or weed control at 25 g/100 kg seed (Sclerotinia sclerotiorum [4]; [9]): 0%
- pest or weed control at 50 g/100 kg seed (Sclerotinia sclerotiorum [4]; [9]): 2%

SMILES: CON(C(=O)c1cn(C)nc1C(F)F)C(C)Cc1c(Cl)cc(Cl)cc1Cl (centres unmarked) [pydiflumetofen]
- Damage on plants (emergence inhibition in %) (soybean plants [1]): 0%
- Sclerotinia sclerotiorum Control efficacy % (Sclerotinia sclerotiorum [2]): 100%
- Damage on plants (in %) (dwarf beans): 0%
- Sclerotinia sclerotiorum Control efficacy % (Sclerotinia sclerotiorum [3]): 0%

SMILES: O=C(Nc1ccccc1-c1ccc(F)c(F)c1)c1nccnc1C(F)(F)F [Pyraziflumid]
- damage on soybean plants (in words) (soybean plants [5]; [10]): without giving any damage
- Damage on plants (relative growth inhibition in non-inoculated plants compared to untreated plants: in %) (soybean plants [5]; [11]): 0%
- Damage on plants (relative growth inhibition in non-inoculated plants compared to untreated plants: in %) (soybean plants [5]; [12]): 0%
- Damage on plants (relative growth inhibition in non-inoculated plants compared to untreated plants: in %) (soybean plants [5]; Test 2, soybean seed treatment 70 g a.i./100 kg seed): 0%
- Damage on plants (relative growth inhibition in non-inoculated plants compared to untreated plants: in %) (soybean plants [5]; Test 2, soybean seed treatment 140 g a.i./100 kg seed): 0%
- Damage on plants (relative growth inhibition in non-inoculated plants compared to untreated plants: in %) (soybean plants [5]; [13]): 0%
- Damage on plants (relative growth inhibition in non-inoculated plants compared to untreated plants: in %) (soybean plants [5]; Test 3, soybean seed treatment 140 g a.i./100 kg seed): 0%
- Damage on plants (relative growth inhibition in non-inoculated plants compared to untreated plants: in %) (soybean plants [5]; Test 4, soybean seed treatment 70 g a.i./100 kg seed): 0%
- Damage on plants (relative growth inhibition in non-inoculated plants compared to untreated plants: in %) (soybean plants [5]; Test 4, soybean seed treatment 140 g a.i./100 kg seed): 0%
- Damage on plants (relative growth inhibition in non-inoculated plants compared to untreated plants: in %) (soybean plants [5]; Test 5, soybean seed treatment 75 g a.i./100 kg seed): 0%
- Damage on plants (relative growth inhibition in non-inoculated plants compared to untreated plants: in %) (soybean plants [5]; [14]): 0%
- Damage on plants (relative growth inhibition in non-inoculated plants compared to untreated plants: in %) (soybean plants [5]; [15]): 30%
- control efficacy against ascospore infection of Sclerotinia Sclerotiorum (in words) (Sclerotinia sclerotiorum [4]; [10]): excellent control efficacy
- pest or weed control at 70 g/100 kg seed (Sclerotinia sclerotiorum [4]; [6]): 87%
- pest or weed control at 140 g/100 kg seed (Sclerotinia sclerotiorum [4]; [7]): 95%
- pest or weed control at 75 g/100 kg seed (Sclerotinia sclerotiorum [4]; Sclerotinia sclerotiorum, 48 h, Test 5, soybean seed treatment 75 g a.i./100 kg seed, incubation 2 days, inoculation 21 days after sowing): 98%
- pest or weed control at 25 g/100 kg seed (Sclerotinia sclerotiorum [4]; [16]): 96%
- pest or weed control at 50 g/100 kg seed (Sclerotinia sclerotiorum [4]; [16]): 95%
- pest or weed control at 70 g/100 kg seed (Sclerotinia sclerotiorum [4]; [17]): 36%
- pest or weed control at 140 g/100 kg seed (Sclerotinia sclerotiorum [4]; [18]): 33%
- pest or weed control at 70 g/100 kg seed (Sclerotinia sclerotiorum [4]; Sclerotinia sclerotiorum, 96 h, Test 2, soybean seed treatment 70 g a.i./100 kg seed, incubation 4 days, inoculation 22 days after sowing): 58%
- pest or weed control at 140 g/100 kg seed (Sclerotinia sclerotiorum [4]; Sclerotinia sclerotiorum, 96 h, Test 2, soybean seed treatment 140 g a.i./100 kg seed, incubation 4 days, inoculation 22 days after sowing): 86%
- pest or weed control at 70 g/100 kg seed (Sclerotinia sclerotiorum [4]; Sclerotinia sclerotiorum, 96 h, Test 4, soybean seed treatment 70 g a.i./100 kg seed, incubation 4 days, inoculation 25 days after sowing): 80%
- pest or weed control at 140 g/100 kg seed (Sclerotinia sclerotiorum [4]; Sclerotinia sclerotiorum, 96 h, Test 4, soybean seed treatment 140 g a.i./100 kg seed, incubation 4 days, inoculation 25 days after sowing): 90%

SMILES: CC(O)(Cn1cncn1)c1ccc(Oc2ccc(Cl)cc2)cc1C(F)(F)F (centres unmarked) [Mefentrifluconazole]
- Damage on plants (relative growth inhibition in non-inoculated plants compared to untreated plants: in %) (soybean plants [5]; Test 5, soybean seed treatment 10 g a.i./100 kg seed): 0%
- Damage on plants (relative growth inhibition in non-inoculated plants compared to untreated plants: in %) (soybean plants [5]; Test 5, soybean seed treatment 25 g a.i./100 kg seed): 10%
- pest or weed control at 10 g/100 kg seed (Sclerotinia sclerotiorum [4]; [19]): 90%
- pest or weed control at 25 g/100 kg seed (Sclerotinia sclerotiorum [4]; [19]): 84%

SMILES: CC1(C)N=C(c2cnc3ccccc3c2)c2ccccc2C1(F)F [Quinofumelin]
- Damage on plants (relative growth inhibition in non-inoculated plants compared to untreated plants: in %) (soybean plants [5]; [14]): 0%
- Damage on plants (relative growth inhibition in non-inoculated plants compared to untreated plants: in %) (soybean plants [5]; [15]): 0%
- pest or weed control at 70 g/100 kg seed (Sclerotinia sclerotiorum [4]; [17]): 16%
- pest or weed control at 140 g/100 kg seed (Sclerotinia sclerotiorum [4]; [18]): 1%

SMILES: N#Cc1ccccc1NC(=O)c1snc(Cl)c1Cl [Isotianil]
- Damage on plants (relative growth inhibition in non-inoculated plants compared to untreated plants: in %) (soybean plants [5]; Test 3, soybean seed treatment 35 g a.i./100 kg seed): 11%
- Damage on plants (relative growth inhibition in non-inoculated plants compared to untreated plants: in %) (soybean plants [5]; [13]): 0%
- Damage on plants (relative growth inhibition in non-inoculated plants compared to untreated plants: in %) (soybean plants [5]; Test 6, soybean seed treatment 35 g a.i./100 kg seed): 0%
- Damage on plants (relative growth inhibition in non-inoculated plants compared to untreated plants: in %) (soybean plants [5]; [14]): 0%
- pest or weed control at 35 g/100 kg seed (Sclerotinia sclerotiorum [4]; Sclerotinia sclerotiorum, 48 h): 46%
- pest or weed control at 70 g/100 kg seed (Sclerotinia sclerotiorum [4]; Sclerotinia sclerotiorum, 48 h): 65%
- pest or weed control at 35 g/100 kg seed (Sclerotinia sclerotiorum [4]; Sclerotinia sclerotiorum, 72 h): 15%
- pest or weed control at 70 g/100 kg seed (Sclerotinia sclerotiorum [4]; Sclerotinia sclerotiorum, 72 h): 18%

SMILES: O=S(=O)(Nc1ncc(C(F)(F)F)cc1Cl)c1ccccc1Cl
- Damage on plants (relative growth inhibition in non-inoculated plants compared to untreated plants: in %) (soybean plants [5]; Test 4, soybean seed treatment 10 g a.i./100 kg seed): 17%
- Damage on plants (relative growth inhibition in non-inoculated plants compared to untreated plants: in %) (soybean plants [5]; Test 4, soybean seed treatment 50 g a.i./100 kg seed): 8%
- pest or weed control at 10 g/100 kg seed (Sclerotinia sclerotiorum [4]; [20]): 73%
- pest or weed control at 50 g/100 kg seed (Sclerotinia sclerotiorum [4]; [20]): 70%

SMILES: CC(C)ON=C(CNC(=O)c1ccccc1C(F)(F)F)c1ncc(Cl)cc1Cl
- Damage on plants (relative growth inhibition in non-inoculated plants compared to untreated plants: in %) (soybean plants [5]; [11]): 0%
- Damage on plants (relative growth inhibition in non-inoculated plants compared to untreated plants: in %) (soybean plants [5]; [12]): 0%
- pest or weed control at 25 g/100 kg seed (Sclerotinia sclerotiorum [4]; [16]): 5%
- pest or weed control at 50 g/100 kg seed (Sclerotinia sclerotiorum [4]; [16]): 53%
